The text below walks through data of PMC12007089, “Applying Isothermal Titration Calorimetry and Saturation Transfer Difference-NMR to Study the Mode of Interaction of Flavan-3-ols with α-Amylase to Understand Their Impact on Starch Hydrolysis” (Journal of Agricultural and Food Chemistry, 2025).

SMILES strings stand for the structures. “Also recorded” adds a separate entry of the source. Where two headings read alike, the source gives them in different places.

For data set [1], the target named is T1, porcine pancreatic α-amylase (Sus scrofa, UniProt P00690).
T1 sequence (P00690 16-511): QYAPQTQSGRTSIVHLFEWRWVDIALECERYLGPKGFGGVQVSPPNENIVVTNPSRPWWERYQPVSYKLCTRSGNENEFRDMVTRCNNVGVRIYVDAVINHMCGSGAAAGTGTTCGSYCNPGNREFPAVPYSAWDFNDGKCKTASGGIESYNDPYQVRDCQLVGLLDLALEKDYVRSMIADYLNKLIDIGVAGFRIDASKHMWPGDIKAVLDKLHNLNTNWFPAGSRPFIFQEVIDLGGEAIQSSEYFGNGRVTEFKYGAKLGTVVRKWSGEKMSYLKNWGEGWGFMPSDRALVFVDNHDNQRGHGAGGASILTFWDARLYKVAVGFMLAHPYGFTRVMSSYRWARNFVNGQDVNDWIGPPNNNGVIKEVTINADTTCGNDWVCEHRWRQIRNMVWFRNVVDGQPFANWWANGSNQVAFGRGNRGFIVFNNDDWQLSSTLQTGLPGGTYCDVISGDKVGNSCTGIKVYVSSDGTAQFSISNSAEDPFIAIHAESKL
The data set is described as follows: Saturation transfer difference (STD)-NMR interaction study. The format is binding. To be noted: for saturation protein–ligand aliph., corrected by a blank / saturation protein–ligand arom., corrected by a blank / saturation aliph. / saturation arom.: 10 μM α-amylase, 1 mM ligand, 298 K; for saturation protein–ligand arom., corrected by a blank: catechol ring protons; for saturation aliph. / saturation arom.: head prints 'blank', values are protein–ligand not corrected by a blank; for ratio aliph.: share of aliphatic proton saturation; for ratio arom.: share of aromatic proton saturation. The text has this: STD-NMR parameters were optimized based on the Bruker standard pulse sequence stddiffgp19.3 using a protein and ligand blank sample. The irradiation frequency (FQ2), saturation time (D20), saturation pulse selectivity (SPW9), and power of the saturation pulse (P42) were varied to achieve maximum selective protein saturation (S2). The best saturation of the α-amylase, with 60%, was obtained with FQ2 = 0.5 ppm, D20 = 3 s, SPW9 = 35 dB, and P42 = 50 ms. The pseudo-2D experiment allows simultaneous acquisition of the on-resonance spectrum (with selective protein saturation) and the off-resonance spectrum (without protein saturation). The subtraction of both FIDs yields the STD-NMR spectrum (S3). The off-resonance spectrum serves as a reference spectrum for the determination of ligand saturation by intensity comparison with the STD-NMR spectrum. The protein blank sample contained 10 μM α-amylase, and the ligand blank was acquired with 1.1 mM flavan-3-ol in 0.1 M phosphate buffer/0.04 M NaCl (D2O/H2O, 90/10, v/v). Interaction studies were performed with 10 μM α-amylase and 1 mM (ligand). The software package TopSpin 3.2 of Bruker BioSpin was used for data acquisition and processing.

Data set [2] in a line: Stability of ligands in 0.1 M PBS (UV/Vis concentration). The data set is classed as physicochemical. To be noted: for conc.: storage 3,5 h (EC), 22 h (CAT), 15 h (PC B1, PC B2, PC C1); for difference rt and 277 K: same storage times. On the procedure: Flavan-3-ols were dissolved in 0.1 M phosphate buffer containing 0.04 M NaCl at pH 7. Final concentrations were determined by UV/Vis spectroscopy at 298 K (quartz glass cuvette, light path 10 mm, Hellma Analytics, SPECTROstar Nano, BMG Labtech) using the following absorption coefficients ε at 280 nm: CAT, 3340 [L/mol cm]; EC, 3470 [L/mol cm]; PC B1, 6800 [L/mol cm]; […] PC C1, 10,000 [L/mol cm] according to Kaeswurm et al.[33] All ligand solutions were stored at 253 K. The data analysis for the interaction studies was conducted using software NanoAnalyze, with manual integration of the peaks. To correct the data for noninteraction-related heats, the mean heat released during the final three injections was subtracted as a constant blank. This procedure is an effective estimation strategy that minimizes errors during the fitting process, provided that the protein is fully saturated.[35] The data were fitted using the “independent” model. To prevent overparametrization, n was set to 1, while Ka and ΔH were maintained as variables, as recommended for low-affinity binding.[35],[36] The stability of the ligand at room temperature was ensured by monitoring the concentrations prior to and following the experiment (S5).

Data set [3] has as its system α-amylase. On the set-up: method as in PMID 21495725. Particulars: cited from earlier work.
Data set [4] has as its target T1, porcine pancreatic α-amylase. Description: CD spectroscopy, change in secondary structure of α-amylase. To be noted: for impact on the secondary structure of α-amylase: 90 μM α-amylase, 600 μM flavan-3-ol; for α-helix / β-turn / β-sheet / random coil: α-amylase + polyphenol, 90 µM α-amylase, 600 µM polyphenol; for α-helix: α-amylase alone 8; for β-turn: α-amylase alone 12; for β-sheet: α-amylase alone 32; for random coil: α-amylase alone 48. The method, then:
CD spectra were recorded in the range of 240–190 nm with a bandwidth of 1 nm on a Jasco J-815 CD spectrometer equipped with a Peltier unit from Jasco PTC-4238 and a temperature control (F250, Julabo). For CD experiments, 20 μL respective dilutions of the stock solutions for α-amylase, EC, and PC B2 or mixtures of α-amylase and flavan-3-ol, obtained from the ITC cell after interactions experiments (see Section 2.7; 90 μM α-amylase and 600 μM EC/PC B2), were diluted with 60 μL of 0.2 M KCl and filled bubble-free into a cuvette with a light path of 0.1 mm (Hellma Analytics). At 273 K, 40 independent spectra were accumulated in a continuous scanning mode and a speed of 100 nm/min without baseline correction. Data analysis was performed in Excel according to Kaeswurm et al.[34]

Data set [5] deals with α-amylase. On the set-up: method as in PMID 31496243. Particulars: substrate Gal-G2-CNP, UV-based, cited from earlier work.
For data set [6], the system named is α-amylase. On the set-up: method as in PMID 27132823. Particulars: cited from earlier work.
Data set [7] has as its system α-amylase. On the set-up: method as in PMID 28618113. Particulars: α-amylase concentration of 20 μM in the sample cell; cited from earlier work.

Regarding `Oc1cc(O)c2c(c1)O[C@H](c1ccc(O)c(O)c1)[C@@H](O)C2` [CAT, (+)-Catechin], in data set [1], the “saturation protein–ligand aliph., corrected by a blank” value amounted to 3%; the “saturation protein–ligand arom., corrected by a blank” value was 11%; the saturation aliph. came out at 5%; the saturation arom. was found to be 13%. In addition, in data set [1], the ratio aliph. is 21 and the ratio arom. amounted to 79. The conc. in data set [2] (277 K) was 3,94 ± 0,24 mM. Also, the conc. in data set [2] (room temperature (rt)) is on record as 4,02 ± 0,21 mM. Besides, the “difference rt and 277 K” value in data set [2] is reported as 0,08 mM.

For the molecule `Oc1cc(O)c2c(c1)O[C@H](c1ccc(O)c(O)c1)[C@H](O)C2` [EC, (−)-Epicatechin], the “reduction / decrease in α-amylase activity” value in the data set on α-amylase [3] is 10%. Besides, in data set [4], the “impact on the secondary structure of α-amylase” value was “No significant impact; also recorded: did not induce significant changes”, the α-helix came out at 14%, the β-turn is given as 15% and the β-sheet was 23%. Also, the random coil in data set [4] is 48%. Further, the Ki at α-amylase [5] (read-out: Kic) was 88 ± 37 µM. The Ki at α-amylase [5] (read-out: Kiu) is 231 ± 45 µM. Also, in data set [1], the “saturation protein–ligand aliph., corrected by a blank” value is 6%; the “saturation protein–ligand arom., corrected by a blank” value stood at 21%; the saturation aliph. amounted to 6%; the saturation arom. is 21%. Further, in data set [1], the ratio aliph. is 21 and the ratio arom. was 79. In addition, the “inhibition of α-amylase compared to other phenolic compounds and the apple extract” value in the data set with α-amylase [6] is listed as “weakest inhibition”. The conc. in data set [2] (277 K) is given as 3,99 ± 0,25 mM. Besides, the conc. in data set [2] (room temperature (rt)) is given as 4,23 ± 0,24 mM. Also, the “difference rt and 277 K” value in data set [2] is reported as 0,24 mM. Also, the “binding to α-amylase by ITC” value with α-amylase [7] is reported as “weak binder”.

For the molecule `Oc1cc(O)c2c(c1)O[C@H](c1ccc(O)c(O)c1)[C@H](O)[C@H]2c1c(O)cc(O)c2c1O[C@H](c1ccc(O)c(O)c1)[C@@H](O)C2` [PC B1, procyanidin B1], in data set [1], the “saturation protein–ligand aliph., corrected by a blank” value was determined as 11%; the “saturation protein–ligand arom., corrected by a blank” value was found to be 14%; the saturation aliph. is given as 11%; the saturation arom. is recorded as 14%. In data set [1], the ratio aliph. was found to be 44 and the ratio arom. was found to be 56. The conc. in data set [2] (277 K) is given as 4,28 ± 0,20 mM. For the same molecule, the conc. in data set [2] (room temperature (rt)) is recorded as 4,10 ± 0,29 mM. Moreover, the “difference rt and 277 K” value in data set [2] was 0,18 mM.

`Oc1cc(O)c2c(c1)O[C@H](c1ccc(O)c(O)c1)[C@H](O)[C@H]2c1c(O)cc(O)c2c1O[C@H](c1ccc(O)c(O)c1)[C@H](O)C2` [PC B2, procyanidin B2]: in data set [4], the “impact on the secondary structure of α-amylase” value is reported as “No significant impact; also recorded: did not induce significant changes”, the α-helix amounted to 14%, the β-turn was 15% and the β-sheet came to 23%. Also, in data set [4], the random coil was 48%. Moreover, in data set [1], the “saturation protein–ligand aliph., corrected by a blank” value is reported as 6%; the “saturation protein–ligand arom., corrected by a blank” value is recorded as 9%; the saturation aliph. is listed as 6%; the saturation arom. is reported as 9%. Further, in data set [1], the ratio aliph. is on record as 40 and the ratio arom. is 60. Further, the conc. in data set [2] (277 K) is on record as 4,46 ± 0,24 mM. The conc. in data set [2] (room temperature (rt)) is 4,56 ± 0,21 mM. Also, the “difference rt and 277 K” value in data set [2] is 0,11 mM.

Consider `Oc1cc(O)c2c(c1)O[C@H](c1ccc(O)c(O)c1)[C@H](O)[C@H]2c1c(O)cc(O)c2c1O[C@H](c1ccc(O)c(O)c1)[C@H](O)[C@H]2c1c(O)cc(O)c2c1O[C@H](c1ccc(O)c(O)c1)[C@H](O)C2` [PC C1, procyanidin C1], for which, in data set [1], the “observation in the STD-NMR sample with α-amylase” value is on record as “visible precipitation”; the “saturation protein–ligand aliph., corrected by a blank” value is listed as 7%; the “saturation protein–ligand arom., corrected by a blank” value is on record as 11%; the saturation aliph. is 7%. Moreover, in data set [1], the saturation arom. is 11%, the ratio aliph. is listed as 39 and the ratio arom. came out at 61. Further, the “PC C1 concentration in solution after precipitation” value in data set [1] (after STD experiment, 1 mM PC C1, 10 μM α-amylase) was 0.35 mM. Moreover, in data set [1] (integrals of aromatic protons, off-resonance spectrum vs pure ligand blank, 1 mM PC C1, 10 μM α-amylase), the “decrease of PC C1 in solution after precipitation” value was “roughly 65%”. Moreover, the conc. in data set [2] (277 K) is 4,60 ± 0,42 mM. In data set [2] (room temperature (rt)), the conc. is given as 4,29 ± 0,30 mM. For the same molecule, the “difference rt and 277 K” value in data set [2] is 0,31 mM.
